# From the supplement of paper PMC11208160
# Experiment: recombinant barcode read abundance after kanamycin selection (control-corrected) (log10(CPM+1)); higher = more efficient recombination; sequences stand for … in AGTGCAGAGAAAATCGGCCAGTTTTCTCTGCCTGCAGTCCGCATGCCGT…AGATTTATGCAGCGGACTGCCTTTCTCCCAAAGTGATAAACCGGACAGTATCATGGACCGGTTTTCCCGGTAATCCGTATTTGCAAGGTTGGTTTCACT; site = the 11-nt target
# Experimental: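 Pooled E. coli target-specificity screen for the IS621 bridge recombinase. Each library plasmid pairs an 11-nt target (CT core) with a bridge RNA whose target-binding loop (9-nt LTG + 4-nt RTG) is reprogrammed; the rest of the 177-nt WT IS621 bridge RNA scaffold is fixed. The plasmid is co-electroporated with a WT donor plasmid; recombinase is induced with 0.1 mM IPTG and recombinants are selected on kanamycin. Recombinant barcodes are sequenced, converted to CPM, averaged over two biological replicates and corrected by the unselected control CPM. Molecule = full bridge RNA written as DNA: LTG = specificity nt 1-9, RTG = reverse complement of specificity nt 8-11, in the WT scaffold.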
# 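Also: IS621 recombinase and bridge RNA in Escherichia coli cells.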
row,Sequence,recombinant barcode read abundance (log10)
1,ACTGATCCTTGGGTTCTAACCTGTTGCCT (site ACTGATGCTAG),0.671
2,ACTGATCCTTGGGTTCTAACCTGTTGCCT (site ACTGATTCTAG),0.0263
3,ACTGGGTCTTGGGTTCTAACCTGTTGCGT (site ACATGGTCTAC),0.254
4,ACTGGGTCTTGGGTTCTAACCTGTTGCGT (site ACTGGGTCTAC),2.66
5,ACTGGGTCTTGGGTTCTAACCTGTTGCTT (site ACTGAGTCTAA),0.782
6,ACTGGGTCTTGGGTTCTAACCTGTTGCTT (site ACTGGGTCTAA),1.41
7,ACTGGTACTTGGGTTCTAACCTGTTGCCT (site ACGGGTACTAG),0.161
8,ACTGGTACTTGGGTTCTAACCTGTTGCCT (site ACTGGTACTAG),1.22
9,ACTGGTCCTTGGGTTCTAACCTGTTGCGG (site ACTGGTCCTCC),2.93
10,ACTGGTCCTTGGGTTCTAACCTGTTGCGG (site GACATATCTAA),0.0953
11,ACTTAGACTTGGGTTCTAACCTGTTGCCA (site ACTTAGACTAG),0.502
12,ACTTAGACTTGGGTTCTAACCTGTTGCCA (site ACTTAGACTCG),0.408
13,ACTTAGACTTGGGTTCTAACCTGTTGCCA (site ACTTAGACTGG),0.0414
14,ACTTAGACTTGGGTTCTAACCTGTTGCCA (site ACTTAGACTTG),0.363
15,ACTTAGACTTGGGTTCTAACCTGTTGCCG (site ACTTAGACTAG),0.287
16,ACTTAGACTTGGGTTCTAACCTGTTGCCG (site ACTTAGACTCG),1.29
17,ACTTAGACTTGGGTTCTAACCTGTTGCCG (site ACTTAGACTGG),0.159
18,ACTTAGACTTGGGTTCTAACCTGTTGCCG (site ACTTAGACTTG),0.129
19,ACTTAGTCTTGGGTTCTAACCTGTTGCTA (site ACATAGTCTCA),0.178
20,ACTTAGTCTTGGGTTCTAACCTGTTGCTA (site ACTTAGTCTTA),0.277
21,ACTTGAGCTTGGGTTCTAACCTGTTGCAG (site ACTTGAGCTCT),1.48

row,Sequence,recombinant barcode read abundance (log10)
1,ACTTGAGCTTGGGTTCTAACCTGTTGCAG (site CACGCTCCTAC),0.167
2,ACTTGTACTTGGGTTCTAACCTGTTGCAT (site ACTTGGACTAT),0.0152
3,ACTTGTACTTGGGTTCTAACCTGTTGCAT (site ACTTGTACTAT),1.22
4,ACTTTACCTTGGGTTCTAACCTGTTGCCT (site ACTTTACCTAG),0.188
5,ACTTTACCTTGGGTTCTAACCTGTTGCCT (site CCTTTACCTAG),0.324
6,ACTTTACCTTGGGTTCTAACCTGTTGCCT (site GCTTTACCTAG),0.0495
7,ACTTTACCTTGGGTTCTAACCTGTTGCCT (site TCTTTACCTAG),0.186
8,AGAACACCTTGGGTTCTAACCTGTTGCTT (site AGAACACCTAA),0.525
9,AGAACACCTTGGGTTCTAACCTGTTGCTT (site GAGGAGTCTCG),0.13
10,AGAACTACTTGGGTTCTAACCTGTTGCCT (site AGAACTACTAG),0.384
11,AGAACTACTTGGGTTCTAACCTGTTGCCT (site AGGACTACTAG),0.162
12,AGAACTCCTTGGGTTCTAACCTGTTGCGA (site AGAACTCCTTC),1.03
13,AGAACTCCTTGGGTTCTAACCTGTTGCGA (site CTGGAGACTAA),0.42
14,AGAAGATCTTGGGTTCTAACCTGTTGCCT (site AGAAGATCTAG),0.706
15,AGAAGATCTTGGGTTCTAACCTGTTGCCT (site TACCTTACTCT),0.0563
16,AGAAGTCCTTGGGTTCTAACCTGTTGCAG (site AGAAGTCCTCA),0.83
17,AGAAGTCCTTGGGTTCTAACCTGTTGCAG (site AGAAGTCCTCC),0.246
18,AGAAGTCCTTGGGTTCTAACCTGTTGCAG (site AGAAGTCCTCG),0.366
19,AGAAGTCCTTGGGTTCTAACCTGTTGCAG (site AGAAGTCCTCT),1.56
20,AGAATCCCTTGGGTTCTAACCTGTTGCAT (site AGAATCCCTAT),1.49
21,AGAATCCCTTGGGTTCTAACCTGTTGCAT (site ATAAACCCTAT),0.0539

row,Sequence,recombinant barcode read abundance (log10)
1,AGACAGTCTTGGGTTCTAACCTGTTGCCA (site AGACAGTCTTG),0.311
2,AGACAGTCTTGGGTTCTAACCTGTTGCCA (site GACTGAGCTCC),0.0895
3,AGACGTACTTGGGTTCTAACCTGTTGCCT (site AGACGTACTAG),1.65
4,AGACGTACTTGGGTTCTAACCTGTTGCCT (site AGCCGTACTAG),0.102
5,AGACGTACTTGGGTTCTAACCTGTTGCCT (site AGGCGTACTAG),0.128
6,AGACGTACTTGGGTTCTAACCTGTTGCCT (site AGTCGTACTAG),0.0904
7,AGACGTCCTTGGGTTCTAACCTGTTGCTT (site AGACATCCTAA),0.197
8,AGACGTCCTTGGGTTCTAACCTGTTGCTT (site AGACCTCCTAA),0.162
9,AGACGTCCTTGGGTTCTAACCTGTTGCTT (site AGACGTCCTAA),1.03
10,AGACGTCCTTGGGTTCTAACCTGTTGCTT (site AGACTTCCTAA),0.15
11,AGAGCTCCTTGGGTTCTAACCTGTTGCGG (site AGAGCTCCTCC),1.28
12,AGAGCTCCTTGGGTTCTAACCTGTTGCGG (site AGTGCTCCTCC),0.196
13,AGAGGACCTTGGGTTCTAACCTGTTGCCT (site AGAGGACCTAG),2.32
14,AGAGGACCTTGGGTTCTAACCTGTTGCCT (site TGAGCACCTAG),0.213
15,AGAGGTTCTTGGGTTCTAACCTGTTGCCT (site AAAGGTTCTAG),0.141
16,AGAGGTTCTTGGGTTCTAACCTGTTGCCT (site ACAGGTTCTAG),0.0172
17,AGAGGTTCTTGGGTTCTAACCTGTTGCCT (site AGAGGTTCTAG),1.58
18,AGAGGTTCTTGGGTTCTAACCTGTTGCCT (site ATAGGTTCTAG),0.271
19,AGAGTAACTTGGGTTCTAACCTGTTGCAC (site AGAGTAACTGT),2.19
20,AGAGTAACTTGGGTTCTAACCTGTTGCAC (site TCTCGTTCTTA),0.063
21,AGAGTCCCTTGGGTTCTAACCTGTTGCGG (site AGAGTCCCTCC),3.09

row,Sequence,recombinant barcode read abundance (log10)
1,AGAGTCCCTTGGGTTCTAACCTGTTGCGG (site AGAGTCTCTCA),0.295
2,AGAGTCTCTTGGGTTCTAACCTGTTGCTG (site AGAGTCCCTCC),0.101
3,AGAGTCTCTTGGGTTCTAACCTGTTGCTG (site AGAGTCTCTCA),0.78
4,AGATACTCTTGGGTTCTAACCTGTTGCCT (site ACATAGTCTAG),0.428
5,AGATACTCTTGGGTTCTAACCTGTTGCCT (site AGATACTCTAG),2.66
6,AGATATACTTGGGTTCTAACCTGTTGCTT (site AGATATACTAA),0.167
7,AGATATACTTGGGTTCTAACCTGTTGCTT (site CACCTGTCTCC),0.0796
8,AGATCTCCTTGGGTTCTAACCTGTTGCGT (site AGATCTCCTAC),0.777
9,AGATCTCCTTGGGTTCTAACCTGTTGCGT (site TCGAAGTCTTA),0.0154
10,AGATGAGCTTGGGTTCTAACCTGTTGCGG (site AAATGGGCTCC),0.0978
11,AGATGAGCTTGGGTTCTAACCTGTTGCGG (site AGATGAGCTCC),1.51
12,AGATGTGCTTGGGTTCTAACCTGTTGCCT (site AGATGTGCTAG),1.49
13,AGATGTGCTTGGGTTCTAACCTGTTGCCT (site CACAAACCTCT),0.181
14,AGATTATCTTGGGTTCTAACCTGTTGCCT (site AGAATATCTAG),0.21
15,AGATTATCTTGGGTTCTAACCTGTTGCCT (site AGATTATCTAG),1.32
16,AGCAGCACTTGGGTTCTAACCTGTTGCCT (site AGCAGCACTAG),0.731
17,AGCAGCACTTGGGTTCTAACCTGTTGCCT (site CGCAGCACTAG),0.298
18,AGCAGTACTTGGGTTCTAACCTGTTGCTA (site AGCAGTACTTA),0.299
19,AGCAGTACTTGGGTTCTAACCTGTTGCTA (site TTGGAGGCTAG),0.248
